The record followed here is ChEMBL document CHEMBL1125598, “HIV protease: a novel chemotherapeutic target for AIDS” (J Med Chem, 1991).

The target of series [1] is T1, Human immunodeficiency virus type 1 protease (Human immunodeficiency virus 1, UniProt Q72874). The series can be described thus: The compound was tested for its affinity against HIV-1 protease.
In series [2] the target is T1, Human immunodeficiency virus type 1 protease. Briefly: Binding affinity for HIV-1 protease.
The subject of the next series is C8166. The series can be described thus: Antiviral activity in HIV-1RF infected C8166 cells. The note with it: Homo sapiens. The class given is functional, cell-based.
Another series relates to JM1. Briefly: Antiviral activity in HIV-1GB8 infected JM cells. To be noted: Homo sapiens. Type of series: functional, cell-based.
For series [3], the system named is Human immunodeficiency virus 1. The series can be described thus: Concentration for prevention of spread of HIV infection; range 25-100 uM. Type of series: functional, organism-based.
Series [4] deals with H9. Briefly: Inhibitory activity against HIV-1IIIb in H-9 cells using immunofluorescence. The class given is functional, Homo sapiens.
The subject of series [5] is H9. Briefly: Inhibitory activity against HIV-1 mB in H9 cells; Range 20-150 nM. To be noted: Homo sapiens. Type of series: functional, cell-based.
A short description of series [6]: Toxicity against HIV-1 mB in H9 cells; Range 10 to >100 uM. Type of series: cell-based. To be noted: human, read-out: TC50 (the source's name).
The next series deals with MT4. The series can be described thus: Inhibitory activity against HIV-1 mB in MT-4 cells; Range 20-150 nM. Type of series: functional, cell-based. The note with it: Homo sapiens.
Series [7] can be described thus: Toxicity against HIV-1 mB in MT-4 cells; Range 10 to >100 uM. Type of series: cell-based, MT4. To be noted: human, read-out: TC50 (the source's name).

Structures are written as SMILES. Values joined by “and” are separate entries in the source; they are usually repeats but may differ in a detail not shown here. Identical values can stand only once. Peptide text beside a SMILES is read from it. A value given as a limit tells only on which side of the number the result lay.

In turn, `CC(C)[C@H](NC(=O)[C@@H](NC(=O)[C@@H]1CCCN1C[C@H](Cc1ccccc1)NC(=O)[C@H](C)NC(=O)[C@H](C)NC(=O)[C@@H](N)CO)C(C)C)C(N)=O` (HELM PEPTIDE1{S.A.A.[O=C([C@@H]1CCCN1C[C@H](Cc1ccccc1)N[*:1])[*:2]].V.V.[am]}$$$$V2.0) registered an IC50 in series [1] of 19000 nM.
In series [2], `CC(C)[C@H](NC(=O)[C@@H](NC(=O)C(Cc1ccccc1)CP(=O)(O)[C@@H](Cc1ccccc1)NC(=O)[C@@H](NC(=O)[C@@H](NC(=O)OC(C)(C)C)C(C)C)C(C)C)C(C)C)C(N)=O` (stereo partly drawn) (HELM PEPTIDE1{[CC(C)(C)OC(=O)[*:2]].V.V.[O=C(C(Cc1ccccc1)CP(=O)(O)[C@@H](Cc1ccccc1)N[*:1])[*:2]].V.V.[am]}$$$$V2.0) gave a Ki of 0.04 nM.
Turning to `CC(C)(C)NC(=O)[C@H]1C[C@@H]2CCCC[C@@H]2CN1C[C@@H](O)[C@H](Cc1ccccc1)NC(=O)[C@H](CC(N)=O)NC(=O)c1ccc2ccccc2n1`, the IC50 stood at 2 nM in the series on C8166 and 2.5 nM in the series with JM1.
`CC(C)(C)OC(=O)C1CCCN1C[C@@H](O)[C@H](Cc1ccccc1)NC(=O)[C@H](CC(N)=O)NC(=O)OCc1ccccc1` (stereo partly drawn): the IC50 in series [1] came out at 140 nM.
Same read-out and setting: under `CC[C@H](C)[C@H](NC(=O)[C@@H]1CCCN1C[C@H](Cc1ccccc1)NC(=O)[C@H](CC(N)=O)NC(=O)[C@H](CCC(N)=O)NC(=O)[C@H](CO)NC(=O)[C@@H](N)C(C)C)C(=O)N[C@H](C(=O)O)C(C)C` (HELM PEPTIDE1{V.S.Q.N.[O=C([C@@H]1CCCN1C[C@H](Cc1ccccc1)N[*:1])[*:2]].I.V}$$$$V2.0) stands 3.5 nM.
As to `COC(=O)[C@@H](NC(=O)[C@@H](NC(=O)CCP(=O)(O)[C@@H](Cc1ccccc1)NC(=O)[C@H](C)NC(=O)[C@H](C)NC(=O)[C@@H](N)CO)C(C)C)C(C)C` (HELM PEPTIDE1{S.A.A.[O=C(CCP(=O)(O)[C@@H](Cc1ccccc1)N[*:1])[*:2]].V.V.[CO[*:1]]}$$$$V2.0), the Ki in series [2] worked out at 4400 nM.
On the same count and under the same terms, under `CC[C@H](C)[C@H](NC(=O)C1CCCN1C[C@H](C)[C@H](Cc1ccccc1)NC(=O)[C@H](CC(N)=O)NC(=O)[C@H](CC(C)C)NC(=O)[C@H](CO)NC(C)=O)C(=O)N[C@H](C(=O)OC)C(C)C` (stereo partly drawn) (HELM PEPTIDE1{[ac].S.L.N.[C[C@@H](CN1CCCC1C(=O)[*:2])[C@H](Cc1ccccc1)N[*:1]].I.V.[CO[*:1]]}$$$$V2.0) stands 0.66 nM.
As to `CC(C)[C@H](NC(=O)OCc1ccccc1)C(=O)N[C@@H](Cc1ccccc1)C(O)[C@H](Cc1ccccc1)NC(=O)[C@@H](NC(=O)OCc1ccccc1)C(C)C`, in [1], the IC50 came out at 3 nM.
For `CC(C)C[C@H](NC(=O)[C@H](Cc1ccccc1)CP(=O)(O)[C@H](Cc1ccccc1)NC(=O)OC(C)(C)C)C(=O)N[C@@H](Cc1ccccc1)C(N)=O`, 9 nM corresponded to half-maximal inhibition in [1] (IC50).
In [2], `CC[C@H](C)[C@H](NC(=O)[C@@H](C[C@H](O)[C@H](CC1CCCCC1)NC(=O)[C@H](C)NC(C)(C)C)C(C)C)C(=O)NCc1ccccn1` showed a Ki of 70 nM.
As to `COC(=O)[C@@H](NC(=O)[C@@H](NC(=O)CC[C@@H](O)[C@@H](Cc1ccccc1)NC(=O)[C@H](C)NC(=O)[C@H](C)N)C(C)C)C(C)C` (HELM PEPTIDE1{A.A.[O=C(CC[C@@H](O)[C@@H](Cc1ccccc1)N[*:1])[*:2]].V.V.[CO[*:1]]}$$$$V2.0), the Concentration in series [3] came out at 100 µM. The same compound registered a Ki in [2] of 18 nM.
In the case of `CC(C)(C)NC(=O)C1CCCCN1C[C@@H](O)[C@H](Cc1ccccc1)NC(=O)[C@H](CC(N)=O)NC(=O)c1ccc2ccccc2n1` (stereo partly drawn), the IC50 in [1] worked out at 2 nM.
In [2], `CC(C)[C@H](NC(=O)[C@@H](NC(=O)C(Cc1ccccc1)CP(=O)(O)[C@@H](Cc1ccccc1)NC(=O)c1ccccc1)C(C)C)C(N)=O` (stereo partly drawn) returned a Ki of 0.6 nM.
The same measure, in the same setting: the same measure for `CC(C)[C@H](NC(=O)[C@@H](NC(=O)C1CCCN1CP(=O)(O)[C@@H](Cc1ccccc1)NC(=O)c1ccccc1)C(C)C)C(N)=O` (stereo partly drawn): 450 nM; for `COC(=O)[C@@H](NC(=O)[C@@H](NC(=O)C[C@H](O)[C@H](Cc1ccccc1)NC(=O)[C@H](C)NC(=O)[C@H](C)NC(=O)[C@@H](N)CO)C(C)C)C(C)C` (HELM PEPTIDE1{S.A.A.[O=C(C[C@H](O)[C@H](Cc1ccccc1)N[*:1])[*:2]].V.V.[CO[*:1]]}$$$$V2.0): 1200 nM; for `CC(=O)N[C@@H](CO)C(=O)N[C@@H](CCC(N)=O)C(=O)N[C@@H](CC(N)=O)C(=O)N[C@@H](Cc1ccccc1)[C@@H](O)CC(=O)N[C@H](C(=O)N[C@H](C(N)=O)C(C)C)C(C)C` (HELM PEPTIDE1{[ac].S.Q.N.[O=C(C[C@H](O)[C@H](Cc1ccccc1)N[*:1])[*:2]].V.V.[am]}$$$$V2.0): 39000 nM.
Still for that read-out and setting: the same measure for `CC[C@H](C)[C@H](NC(=O)[C@H](C(C)C)[C@@H](O)[C@H](O)[C@H](CC1CCCCC1)NC(=O)[C@H](Cc1c[nH]cn1)NC(=O)COc1cccc2ccccc12)C(=O)NCc1ccccn1`: below 1 nM; for `CC[C@H](C)[C@H](NC(=O)[C@@H](C[C@H](O)[C@H](CC(C)C)NC(=O)[C@H](Cc1c[nH]cn1)NC(=O)[C@H](Cc1ccccc1)NC(=O)[C@@H]1CCCN1C(=O)[C@H](Cc1c[nH]cn1)NC(=O)OC(C)(C)C)C(C)C)C(=O)N[C@@H](Cc1c[nH]cn1)C(=O)O` (HELM PEPTIDE1{[CC(C)(C)OC(=O)[*:2]].H.P.F.H.[CC(C)C[C@H](N[*:1])[C@@H](O)C[C@H](C(=O)[*:2])C(C)C].I.H}$$$$V2.0): 5 nM.
Turning to `CC(C)(C)OC(=O)N[C@@H](Cc1ccccc1)[C@@H](O)C[C@@H](Cc1ccccc1)C(=O)N[C@H]1c2ccccc2C[C@H]1O`, the IC100 in the series with H9 [4] was 200 nM.
In [1], `CC(=O)N[C@@H](Cc1ccccc1)C(O)[C@H](Cc1ccccc1)NC(C)=O` registered an IC50 above 10000 nM.
With `CCCC[C@H](CN[C@H](CCCC)C(=O)N[C@@H](CCC(N)=O)C(=O)N[C@@H](CCCNC(=N)N)C(N)=O)NC(=O)[C@@H](NC(=O)[C@@H](NC(C)=O)[C@@H](C)O)[C@@H](C)CC`, the concentration for half-maximal inhibition (IC50) in [1] amounted to 780 nM.
As to `CC(C)[C@H](NC(=O)OCc1ccccc1)C(=O)N[C@@H](Cc1ccccc1)[C@H](O)[C@H](O)[C@H](Cc1ccccc1)NC(=O)[C@@H](NC(=O)OCc1ccccc1)C(C)C`, the IC50 in the series with H9 [5] is 20 nM; in the series on MT4, 20 nM; in [1], 0.2 nM and < 0.4 nM. The CC50 in series [6] and in [7] was 10000 nM in each case.
